In patent publication US20100317607A1, “USE OF COMPOUNDS FOR PREPARING ANTI-TUBERCULOSIS AGENTS” (INFECTIOUS DISEASE RESEARCH INSTITUTE, priority 2007, published 2010):
≈ marks a conversion by molar mass, not a printed value. Structures can show the parent of a compound that is named as a salt.

Test system: H37Rv strain of M. tuberculosis
Experiment: Alamar Blue Susceptibility Test (MABA)
Format: cell-based
Settings: Mycobacterium tuberculosis; H37Rv strain of M. tuberculosis; Alamar Blue; read-out: MABA (TB growth inhibition, colourimetric assay)

Structure (SMILES) | MIC
OC[C@@H]1CCCN1c1nc(NCc2ccc(F)cc2)c2ccccc2n1 [Compound 198, (S)-(1-(4-(4-Fluorobenzylamino)quinazolin-2-yl)pyrrolidin-2-yl)methanol] | 50 to 128 µM (≈ 17.6 to 45.1 µg/mL)
Clc1ccc(N2CCN(c3nc(N4CCCCC4)nc4ccccc34)CC2)cc1 [Compound 89, 4-(4-(4-Chlorophenyl)piperazin-1-yl)-2-(piperidin-1-yl)quinazoline] | 10 to 50 µM (≈ 4.08 to 20.4 µg/mL)
COc1cc2nc(N3CCCCC3)nc(NCc3ccccc3)c2cc1OC [Compound 70, N-Benzyl-6,7-dimethoxy-2-(piperidin-1-yl)quinazolin-4-amine] | 10 to 50 µM (≈ 3.78 to 18.9 µg/mL)
COc1cc2nc(NCc3ccc(F)cc3)nc(NCc3ccc(F)cc3)c2cc1OC [Compound 168, N^2,N^4-bis(4-Fluorobenzyl)-6,7-dimethoxyquinazoline-2,4-diamine] | 10 to 50 µM (≈ 4.36 to 21.8 µg/mL)
CC(C)(C)OC(=O)N1CCCN(c2nc(NCc3ccccc3)c3ccccc3n2)CC1 [Compound 55, tert-Butyl 4-(4-(benzylamino)quinazolin-2-yl)-1,4-diazepane-1-carboxylate] | 10 to 50 µM (≈ 4.34 to 21.7 µg/mL)
C[C@H](Nc1nc(N2CCCCC2)nc2ccccc12)c1ccccc1 [Compound 32, (S)—N-(1-Phenylethyl)-2-(piperidin-1-yl)quinazolin-4-amine] | 10 to 50 µM (≈ 3.32 to 16.6 µg/mL)
O=C(C1CCCCC1)N1CCN(c2nc(NCc3ccc(F)cc3)c3ccccc3n2)CC1 [Compound 203, Cyclohexyl(4-(4-(4-fluorobenzylamino)quinazolin-2-yl)piperazin-1-yl)methanone] | 10 to 50 µM (≈ 4.48 to 22.4 µg/mL)
Fc1ccc(CNc2nc(N3CCCCC3)nc3cccc(Cl)c23)cc1 [Compound 183, 5-Chloro-N-(4-fluorobenzyl)-2-(piperidin-1-yl)quinazolin-4-amine] | 10 to 50 µM (≈ 3.71 to 18.5 µg/mL)
COC[C@@H]1CCCN1c1nc(NCc2ccc(F)cc2)c2ccccc2n1 [Compound 199, (S)—N-(4-Fluorobenzyl)-2-(2-(methoxymethyl)pyrrolidin-1-yl)quinazolin-4-amine] | 10 to 50 µM (≈ 3.66 to 18.3 µg/mL)
FC(F)(F)c1ccc(CNc2nc(N3CCOCC3)nc3ccccc23)cc1 [Compound 77, 2-Morpholino-N-(4-(trifluoromethyl)benzyl)quinazolin-4-amine] | 10 to 50 µM (≈ 3.88 to 19.4 µg/mL)
Cc1ccc(CNc2nc(NCc3ccc(F)cc3)nc3ccccc23)o1 [Compound 158, N^2-(4-Fluorobenzyl)-N^4-((5-methylfuran-2-yl)methyl)quinazoline-2,4-diamine hydrochloride] | 10 to 50 µM
c1ccc(CNc2nc(N3CCCCC3)nc3ccccc23)nc1 [Compound 46, 2-(Piperidin-1-yl)-N-(pyridin-2-ylmethyl)quinazolin-4-amine] | 50 to 128 µM (≈ 16 to 40.9 µg/mL)
Fc1ccc(CNc2nc(N3CCN(Cc4ccccc4)CC3)nc3ccccc23)cc1 [Compound 201, 2-(4-Benzylpiperazin-1-yl)-N-(4-fluorobenzyl)quinazolin-4-amine] | 10 to 50 µM (≈ 4.28 to 21.4 µg/mL)
OC[C@H](Nc1nc(N2CCCCC2)nc2ccccc12)c1ccccc1 [Compound 145, (R)-2-Phenyl-2-(2-(piperidin-1-yl)quinazolin-4-ylamino)ethanol hydrochloride] | 50 to 128 µM
Fc1ccc(CNc2nc(N3CCCCC3)nc3ncccc23)cc1 [Compound 174, N-(4-Fluorobenzyl)-2-(piperidin-1-yl)pyrido[2,3-d]pyrimidin-4-amine] | 10 to 50 µM (≈ 3.37 to 16.9 µg/mL)
c1ccc2c(c1)CCN(c1nc(N3CCCCC3)c3ccccc3n1)C2 [Compound 113, 2-(3,4-Dihydroisoquinolin-2(1H)-yl)-4-(piperidin-1-yl)quinazoline hydrochloride] | 10 to 50 µM
Cc1ccc(CNc2nc(N3CCCCC3)nc3ccccc23)o1 [Compound 167, N-((5-Methylfuran-2-yl)methyl)-2-(piperidin-1-yl)quinazolin-4-amine] | < 10 µM
c1ccc(C2(Nc3nc(N4CCCC4)nc4ccccc34)CCCCC2)cc1 [Compound 125, N-(1-Phenylcyclohexyl)-2-(pyrrolidin-1-yl)quinazolin-4-amine] | 50 to 128 µM (≈ 18.6 to 47.7 µg/mL)
COC(=O)[C@@H](Nc1nc(N2CCCCC2)nc2ccccc12)c1ccccc1 [Compound 175, (S)-Methyl 2-phenyl-2-(2-(piperidin-1-yl)quinazolin-4-ylamino)acetate] | 10 to 50 µM (≈ 3.76 to 18.8 µg/mL)
OC[C@H](Cc1ccccc1)Nc1nc(N2CCCCC2)nc2ccccc12 [Compound 143, (S)-3-Phenyl-2-(2-(piperidin-1-yl)quinazolin-4-ylamino)propan-1-ol hydrochloride] | 10 to 50 µM
CS(=O)(=O)c1ccc(CNc2nc(N3CCCCC3)nc3ccccc23)cc1 [Compound 94, N-(4-(Methylsulfonyl)benzyl)-2-(piperidin-1-yl)quinazolin-4-amine] | 10 to 50 µM (≈ 3.97 to 19.8 µg/mL)
Nc1nc(NCc2ccccc2)c2ccccc2n1 [compound 3, N^4-Benzylquinazoline-2,4-diamine, reference compound] | 50 to 128 µM (≈ 12.5 to 32 µg/mL)
CC(C)(Nc1nc(N2CCCC2)nc2ccccc12)c1ccccc1 [Compound 91, N-(2-Phenylpropan-2-yl)-2-(pyrrolidin-1-yl)quinazolin-4-amine] | 10 to 50 µM (≈ 3.32 to 16.6 µg/mL)
FC(F)(F)c1ccc(CNc2nc(N3CCCCC3)nc3ccccc23)o1 [Compound 160, 2-(Piperidin-1-yl)-N-((5-(trifluoromethyl)furan-2-yl)methyl)quinazolin-4-amine hydrochloride] | < 10 µM

Structure (SMILES) | MIC
COc1ccc([C@@H](C)Nc2nc(N3CCCCC3)nc3ccccc23)cc1 [Compound 97, (R)—N-(1-(4-Methoxyphenyl)ethyl)-2-(piperidin-1-yl)quinazolin-4-amine] | 10 to 50 µM (≈ 3.62 to 18.1 µg/mL)
Fc1ccc(C2(Nc3nc(N4CCCCC4)nc4ccccc34)CC2)cc1 [Compound 152, N-(1-(4-Fluorophenyl)cyclopropyl)-2-(piperidin-1-yl)quinazolin-4-amine] | 10 to 50 µM (≈ 3.62 to 18.1 µg/mL)
Clc1ccc(CNc2nc(N3CCOCC3)nc3ccccc23)cc1 [Compound 74, N-(4-Chlorobenzyl)-2-morpholinoquinazolin-4-amine] | 10 to 50 µM (≈ 3.55 to 17.7 µg/mL)
COC(=O)[C@@H]1CCCN1c1nc(NCc2ccccc2)c2ccccc2n1 [Compound 180, (S)-Methyl 1-(4-(benzylamino)quinazolin-2-yl)pyrrolidine-2-carboxylate] | 50 to 128 µM (≈ 18.1 to 46.4 µg/mL)
Clc1ccc(CNc2nc(N3CCCCC3)c3ccccc3n2)cc1 [Compound 110, N-(4-Chlorobenzyl)-4-(piperidin-1-yl)quinazolin-2-amine hydrochloride] | 10 to 50 µM
COc1cc2c(cc1OC)CN(c1nc(NCc3ccccc3)c3ccccc3n1)CC2 [Compound 181, N-Benzyl-2-(6,7-dimethoxy-3,4-dihydroisoquinolin-2(1H)-yl)quinazolin-4-amine] | 10 to 50 µM (≈ 4.27 to 21.3 µg/mL)
COC(=O)[C@H](Cc1ccccc1)Nc1nc(N2CCCCC2)nc2ccccc12 [Compound 176, (S)-Methyl 3-phenyl-2-(2-(piperidin-1-yl)quinazolin-4-ylamino)propanoate] | 50 to 128 µM (≈ 19.5 to 50 µg/mL)
Fc1ccc(C2(Nc3nc(N4CCC(F)(F)CC4)nc4ccccc34)CC2)cc1 [Compound 153, 2-(4,4-Difluoropiperidin-1-yl)-N-(1-(4-fluorophenyl)cyclopropyl)quinazolin-4-amine] | 50 to 128 µM (≈ 19.9 to 51 µg/mL)
FC(F)(F)c1ccc(CNc2nc(N3CCCCC3)c3ccccc3n2)cc1 [Compound 109, 4-(Piperidin-1-yl)-N-(4-(trifluoromethyl)benzyl)quinazolin-2-amine hydrochloride] | 10 to 50 µM
c1csc(CNc2nc(N3CCCC3)nc3ccccc23)c1 [Compound 187, 2-(Pyrrolidin-1-yl)-N-(thiophen-2-ylmethyl)quinazolin-4-amine] | 10 to 50 µM (≈ 3.1 to 15.5 µg/mL)
Clc1ccc(C2(Nc3nc(N4CCCC4)nc4ccccc34)CC2)cc1 [Compound 142, N-(1-(4-Chlorophenyl)cyclopropyl)-2-(pyrrolidin-1-yl)quinazolin-4-amine hydrochloride] | 10 to 50 µM
c1ccc2c(NCc3ccoc3)nc(N3CCCCC3)nc2c1 [Compound 190, N-(Furan-3-ylmethyl)-2-(piperidin-1-yl)quinazolin-4-amine] | 10 to 50 µM (≈ 3.08 to 15.4 µg/mL)
FC1(F)CCN(c2nc(NCc3ccc(C(F)(F)F)o3)c3ccccc3n2)CC1 [Compound 161, 2-(4,4-Difluoropiperidin-1-yl)-N-((5-(trifluoromethyl)furan-2-yl)methyl)quinazolin-4-amine hydrochloride] | 10 to 50 µM
CCN(CC)c1nc(NCc2ccccc2)c2ccccc2n1 [Compound 25, N^4-Benzyl-N^2,N^2-diethylquinazoline-2,4-diamine] | 10 to 50 µM (≈ 3.06 to 15.3 µg/mL)
CCC(CC)(Nc1nc(N2CCCCC2)nc2ccccc12)c1ccccc1 [Compound 138, N-(3-Phenylpentan-3-yl)-2-(piperidin-1-yl)quinazolin-4-amine] | < 10 µM
Fc1ccc(CNc2nc(N3CCC(F)(F)CC3)nc3cc(F)ccc23)cc1 [Compound 156, 2-(4,4-Difluoropiperidin-1-yl)-7-fluoro-N-(4-fluorobenzyl)quinazolin-4-amine] | 10 to 50 µM (≈ 3.9 to 19.5 µg/mL)
CC(C)(Cc1ccc(F)cc1)Nc1nc(N2CCCCC2)nc2ccccc12 [Compound 108, N-(1-(4-Fluorophenyl)-2-methylpropan-2-yl)-2-(piperidin-1-yl)quinazolin-4-amine] | 10 to 50 µM (≈ 3.78 to 18.9 µg/mL)
FC1(F)CCN(c2nc(NCc3ccc(C(F)(F)F)cc3)nc3ccccc23)CC1 [Compound 147, 4-(4,4-Difluoropiperidin-1-yl)-N-(4-(trifluoromethyl)benzyl)quinazolin-2-amine] | < 10 µM
O=C(c1ccccc1)N1CCN(c2nc(NCc3ccccc3)c3ccccc3n2)CC1 [Compound 58, 1-(4-(4-(Benzylamino)quinazolin-2-yl)piperazin-1-yl)(phenyl)methanone] | 10 to 50 µM (≈ 4.24 to 21.2 µg/mL)
O=C(Nc1nc(NCc2ccccc2)c2ccccc2n1)c1ccccc1 [Compound 73, N-(4-(Benzylamino)quinazolin-2-yl)benzamide] | 50 to 128 µM (≈ 17.7 to 45.4 µg/mL)
c1ccc2c(c1)CCN(c1nc(N3CCCC3)nc3ccccc13)C2 [Compound 186, 4-(3,4-Dihydroisoquinolin-2(1H)-yl)-2-(pyrrolidin-1-yl)quinazoline] | 10 to 50 µM (≈ 3.3 to 16.5 µg/mL)
COCCNc1nc(NCc2ccc(F)cc2)c2ccccc2n1 [Compound 207, N^4-(4-Fluorobenzyl)-N^2-(2-methoxyethyl)quinazoline-2,4-diamine] | 50 to 128 µM (≈ 16.3 to 41.8 µg/mL)
c1ccc(N2CCN(c3nc(N4CCCCC4)nc4ccccc34)CC2)cc1 [Compound 88, 4-(4-Phenylpiperazin-1-yl)-2-(piperidin-1-yl)quinazoline] | 50 to 128 µM (≈ 18.7 to 47.8 µg/mL)
